Source: US20030149235A1, “Targeting peptides” (priority 2000, published 2003)
Entries after “also recorded” stand apart in the source; their conditions may differ. Non-standard residues stand in square brackets, D forms with d. Residues, ends and D or L forms follow the SMILES beside them. *: point of attachment. Nle = CCCC[C@H](N)C(=O)O; Cbz = O=C(OCc1ccccc1)*

Legend:
[1] = test system: HUVEC; experiment: wtAAVegfp transduction, eGFP fluorimetry; format: cell-based, human; details: 250 transduction units/cell, 40 μM LLnL, 4 μM mg132, 5 μg/ml aphidicolin, 10 μM etoposide
Text: FIG. 6 illustrates the efficiency of AAV-mediated gene transfer to ECs. (A) HUVEC and HeLa cells were mock infected (open bars) or infected with 1000 transduction units/cell of wtAAVegfp (filled bars) and analyzed for eGFP expression by fluorimetry and fluorescence microscopy. (B) ECs were infected with 250 transduction units/cell wtMVegfp in the presence or absence of mg132, LLnL, genistein, hydroxyurea, aphidicolin, etoposide, or camptothecin and harvested for quantification of eGFP by fluorimetry at either 24 h or 96 h postinfection. RFU, relative fluorescent units. *Indicates statistical significance from wtMVegfp alone at the same time point. Representative of three independent experiments;
Cells were plated to reach 80% confluence 24 h later. In each case an accurate cell count was performed immediately before infection. Cells were infected with increasing doses of AAV vectors in the presence or absence of helper adenovirus (Ad) as indicated. For each cell type, Ad co-infection was performed at a dose that mediated 70% transduction, based on prior infection efficiency experiments performed on each cell type using a LacZ-expressing Ad, RAd35. At the required time point, cells were washed and lysed in 0.2% Triton X-100 in PBS and stored at −20° C. For dissection of AAV transduction of EC, cells were incubated with AAV in the absence or presence of 40 μM LLnL, 4 μM mg132, 50 μM genistein, 40 mM hydroxyurea, 5 μg/ml aphidicolin, 10 μM etoposide, 0.1 μM camptothecin or 150 nM bafilomycin A2.
Cells were infected as indicated above in the absence or presence of 1 IU heparin/[…] genomic particles and analyzed for gene expression 72 h later. In addition a column assay was carried out. AAVwt or AAVsig were loaded onto heparin columns (immobilized on cross-linked 4% beaded agarose; Sigma) that had been prepacked and equilibrated according to the manufacturer's recommendations. Purified viral preparations (6.4×10^11 particles) in 200 μl were loaded, and the flow-through, wash, and 1 M NaCl eluates were collected and analyzed by dot-blot hybridization using twofold serial dilutions. For quantification of wtAAVegfp-mediated gene transfer to vascular EC, aliquots of cell extracts were analyzed in triplicate for eGFP expression using a Wallac Victor2 multi-counter with recombinant eGFP (Clontech, Basingstoke, Hants., UK) as a standard. All data were analyzed as eGFP relative light units (RFU)/mg protein. For analysis of AAVsig and AAVwtdriven lacZ expression, aliquots of cell extracts were analyzed for beta-galactosidase expression using Galacto-Light Plus (Tropix, Mass., U.S.A.) as per manufacturer's recommendations using recombinant beta-galactosidase (Sigma, UK) as a standard. All data were expressed as RLU/mg protein.

[2] = test system: HepG2 hepatocytes; experiment: Binding of homogenous candidate phage to cells; set-up: species or system human
Protocol: (§1) 10^7 pfu of homogenous phage populations containing candidate peptides were panned on human endothelial cells (HEC), vascular smooth muscle cells (VSMC) and HepG2 hepatocytes, binding from a control peptide-less phage, subtracted and recovery calculated and expressed as a percentage of HEC;
(§2) Phage libraries were amplified, purified and titered according to manufacturers protocols. HEC were plated into 6 well plates and cultured until 2 days post-confluence. 1×10^9 pfu of input phage library was used to pan confluent cultures of HEC (passage 2-4) in triplicate. First we used a direct screening approach and biopanned HEC for 4 rounds. Second we biopanned on HEC after biopanning for 1 hour on 2 successive cultures of VSMC, HepG2 and peripheral blood mononuclear cells (pre-clearing steps). Prior to biopanning growth media was changed to 1 ml DMEM containing 1% bovine serum albumin (BSA) and the plates were incubated at 4° C. for 15 minutes. For HEC, 1×10^9 pfu of pre-cleared or stock phage library was incubated with cells for 1 hour at 4° C. Cells were washed 5 times in ice-cold PBS/1% BSA for 5 minutes per wash. Weakly associated phage were eluted in 1 ml 0.2 M glycine (pH 2.2) for 10 minutes on ice, followed by neutralisation with 200 μl Tris-HCl (pH 8.0). High affinity phage (tightly-bound phage) were isolated by lysing the cells in 1 ml of 30 mM Tris-HCL/1 mM EDTA (pH 8.0) for 1 hour on ice. Cell debris was removed and the supernatant recovered. Phage were amplified and titered between each round to ensure that 10^9 pfu of input phage were used at the start of each successive round. Following completion of biopanning, E. coli ER2537 were infected with the resulting phage, plated and individual plaques picked, amplified, and sequenced. For further binding studies, high titer homogenous populations of each phage were prepared. Briefly, 1×10^7 pfu of each phage were biopanned on HEC, VSMC and HepG2 cells for 30 minutes at 4° C. […] The percentage recovery was calculated for each cell type using a peptide-less phage to allow for background binding.

[3] = test system: VSMC; experiment: Binding of homogenous candidate phage to cells; set-up: species or system human
Protocol: as §1, §2

[4] = test system: HEC; experiment: Binding of homogenous candidate phage to cells; set-up: species or system human; details: 10^7 pfu
Protocol: as §1, §2

[5] = test system: HEC; details: peptide fused to an antibody against the Ad5 fiber knob; reference [47]; cited from earlier work

Compound | effect of agent on wtAAVegfp reporter gene expression versus infection without treatment [1] | further results
CCCC[C@@H](C=O)NC(=O)[C@H](CC(C)C)NC(=O)[C@H](CC(C)C)NC(C)=O [LLnL] (Ac-Leu-Leu-[Nle]-aldehyde) | increase | 
C[C@@]1(CO)[C@H](O)CC[C@@]2(C)[C@H]1CC[C@H]1C[C@@H]3C[C@@]12CC[C@]3(O)CO [aphidicolin] | enhanced | 
COc1cc([C@@H]2c3cc4c(cc3[C@@H](O[C@@H]3O[C@@H]5CO[C@@H](C)O[C@H]5[C@H](O)[C@H]3O)[C@H]3COC(=O)[C@H]23)OCO4)cc(OC)c1O [etoposide] | enhanced | 
CC(C)C[C@@H](C=O)NC(=O)[C@H](CC(C)C)NC(=O)[C@H](CC(C)C)NC(=O)OCc1ccccc1 [mg132] (Cbz-Leu-Leu-Leu-aldehyde) | increase | 
SIGYPLP |  | binding to HepG2 hepatocytes compared to HEC [2]: limited binding; also recorded: low-level affinity; binding to VSMC compared to HEC [3]: limited binding; also recorded: low-level affinity; binding to HEC [4]: high-level binding; adenoviral gene transfer into human EC versus non-targeted Ad [5]: 15 fold
